Among the data in patent US20260001893A1, “SMALL MOLECULE MODULATORS OF STAT6” (Gilead Sciences, Inc., priority 2024, published 2026) are EC50 and Kd values, retold here.

The EC50 is the midpoint of the concentration-response curve. Usually Kd stands for the constant that tells how readily two partners part at equilibrium.

The first test has as its system Eotaxin-3 (CCL26) release in human whole blood stimulated with IL-4. Description: Human whole blood eotaxin-3 assay (IL-4 stimulated eotaxin-3 release). In kind it is cell-based. The conditions noted are these: Homo sapiens, 48 h, human whole blood stimulated with recombinant human IL-4, 48 h; inhibition of eotaxin-3 release; given for test compounds with >80% Emax; geometric mean. The essentials: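 Eotaxin-3 (CCL26) release was quantified by MSD immunoassay in supernatants of human heparinised whole blood after 48 h at 37° C with IL-4 ([…] final). Compounds, in 4-fold dilutions at 0.5% DMSO, were added 2 h before stimulation.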
For `[2H]C([2H])([2H])N(C(=O)c1ccc(C2CCN([C@@H](C)c3cc4c(-n5ccc6[nH]nc(C(F)(F)F)c6c5=O)ccnc4n3C)CC2)cc1)C([2H])([2H])[2H]` [Example 1m147, (S)—N,N-bis(methyl-d3)-4-(1-(1-(1-methyl-4-(4-oxo-3-(trifluoromethyl)-1,4-dihydro-5H-pyrazolo[4,3-c]pyridin-5-yl)-1H-pyrrolo[2,3-b]pyridin-2-yl)ethyl)piperidin-4-yl)benzamide], the 50% effective concentration (EC50) was 60.1 nM.

The next test addresses T1, Human STAT6 (truncated, aa122-658, with N-terminal His-tag) (Homo sapiens, UniProt P42226).
T1 construct: Human STAT6 (truncated, aa122-658, with N-terminal His-tag, expressed in insect cells); His-tag (N); made in house; host or cells: insect cells
T1 sequence (P42226 122-658): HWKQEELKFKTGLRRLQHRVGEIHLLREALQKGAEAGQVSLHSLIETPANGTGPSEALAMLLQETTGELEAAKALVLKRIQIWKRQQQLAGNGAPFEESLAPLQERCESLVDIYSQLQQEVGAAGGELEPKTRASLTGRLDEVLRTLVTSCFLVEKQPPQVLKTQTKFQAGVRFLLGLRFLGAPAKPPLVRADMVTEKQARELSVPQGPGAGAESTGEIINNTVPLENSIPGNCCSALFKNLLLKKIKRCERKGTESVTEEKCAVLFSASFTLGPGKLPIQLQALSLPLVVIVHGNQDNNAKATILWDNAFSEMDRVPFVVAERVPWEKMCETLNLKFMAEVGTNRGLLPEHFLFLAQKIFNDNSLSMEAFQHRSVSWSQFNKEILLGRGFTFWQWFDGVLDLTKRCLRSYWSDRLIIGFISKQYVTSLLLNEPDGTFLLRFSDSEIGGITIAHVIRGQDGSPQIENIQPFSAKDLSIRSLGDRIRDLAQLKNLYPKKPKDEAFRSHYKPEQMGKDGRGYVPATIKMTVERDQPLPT
Briefly: Surface plasmon resonance (SPR) assay, binding to human STAT6. To be noted: Biacore 8K, 25° C, immobilized human STAT6 on CM5 chip, multi-cycle kinetics; geometric mean. The procedure:
Surface Plasmon Resonance Assay
Biacore instruments from the 8K-series (Cytiva) were used, and measurements were performed at 25° C. Human STAT6 (truncated, aa122-658, with N-terminal His-tag, expressed in insect cells) was immobilized in the active flow cells on a CM5 chip using amine-coupling (default settings) at 10 μg/ml in 10 mM acetate buffer pH 5.5, at a contact time of 120-420 sec. and a flow rate of 10 μl/min. Reference flow cells were deactivated using blank immobilization. PBS-P+(Cytiva) supplemented with 2% DMSO was used as running buffer, and solvent correction was applied. Compounds were tested by multi-cycle kinetics injections using a contact time of 60 sec., dissociation time of up to 300 sec., and a flow rate of 30 μl/min.
Solvent-corrected, reference-subtracted and blank-corrected data was processed and binding isotherms were fitted according to a single report point from each sensorgram (Standard: Late binding (5 sec. before injection end); alternative: Earlier report point according to binding profile). Data fitting was done both with unfixed Rmax and with Rmax fixed to the theoretical value* assuming 1:1 binding to allow processing of data from both weak and strong binders as well as to evaluate binding stoichiometry.
Positive controls were run at the beginning, during, and at the end of the screen to evaluate surface activity.
*Equation for calculation of the theoretical Rmax(Theoretical Rmax=(MW Analyte/MW Ligand)×immobilization level).
(In SPR one partner is held on a chip, and binding of the other changes the refractive index at the surface.)
Consider `CNc1ccn(-c2ccnc3c2cc(CN2CCC(c4ccc(C(=O)N(C)C)cc4)C(F)(F)C2)n3C)c(=O)c1` (single isomer, unassigned) [Example 1f2], for which binding was characterised by a dissociation constant (Kd) of 81.3 nM.
As to `CNc1ccn(-c2ccnc3c2cc(CN2CC[C@H](c4ccc(C(=O)N(C)C)cc4)[C@H](F)C2)n3C)c(=O)c1` (single isomer, unassigned) [Example 1f6], the Kd came out at 67.5 nM.
On the same count and under the same terms, the value for `CNc1ccn(-c2ccnc3c2cc([C@H](C)N2CCC(c4ccc(C(=O)N(C)C)cc4)CC2)n3C)c(=O)c1` (single isomer, unassigned) [Example 1m72] was 338 nM; that for `CN(C)C(=O)c1ccc(C2CCN(Cc3cc4c(-n5ncc(N)cc5=O)ccnc4n3C)CC2)cc1` [Example 1ab4, 4-(1-((4-(4-Amino-6-oxopyridazin-1 (6H)-yl)-1-methyl-1H-pyrrolo[2,3-b]pyridin-2-yl)methyl)piperidin-4-yl)-N,N-dimethylbenzamide] was 224 nM.
With `CNc1cc(=O)n(-c2ccnc3c2cc(CN2CCC(c4ccc(C(=O)N(C)C)cc4)CC2)n3C)cn1` [Example 1ac1, N,N-Dimethyl-4-(1-((1-methyl-4-(4-(methylamino)-6-oxopyrimidin-1 (6H)-yl)-1H-pyrrolo[2,3-b]pyridin-2-yl)methyl)piperidin-4-yl)benzamide], the dissociation constant (Kd) came to 4090 nM.
The compound `Cc1cn(-c2ccnc3c2cc(CN2CCC(c4ccc(C(=O)N(C)C)cc4)CC2)n3C)c(=O)nc1N` [Example 1ac3, 4-(1-((4-(4-Amino-5-methyl-2-oxopyrimidin-1 (2H)-yl)-1-methyl-1H-pyrrolo[2,3-b]pyridin-2-yl)methyl)piperidin-4-yl)-N,N-dimethylbenzamide] yielded a Kd of 91.8 nM.
As for `CN(C)C(=O)c1ccc(C2CCN(Cc3cc4c(-n5ccc(NC(=O)OC(C)(C)C)cc5=O)ccnc4n3C)CC2)cc1` [Example 1d2, tert-Butyl N-[1-[2-[[4-[4-(dimethylcarbamoyl)phenyl]-1-piperidyl]methyl]-1-methyl-pyrrolo[2,3-b]pyridin-4-yl]-2-oxo-4-pyridyl]carbamate], binding was characterised by a dissociation constant (Kd) of 175 nM.
Still for that read-out and setting: in the case of `CCOC(=O)Nc1ccn(-c2ccnc3c2cc(CN2CCC(c4ccc(C(=O)N(C)C)cc4)CC2)n3C)c(=O)c1` [Example 1d5, Ethyl N-[1-[2-[[4-[4-(dimethylcarbamoyl)phenyl]-1-piperidyl]methyl]-1-methyl-pyrrolo[2,3-b]pyridin-4-yl]-2-oxo-4-pyridyl]carbamate] it was 178 nM; in that of `COC(=O)Nc1ccn(-c2ccnc3c2cc(CN2CCC(c4ccc(C(=O)N(C)C)cc4)CC2)n3C)c(=O)c1` [Example 1d6, Methyl N-[1-[2-[[4-[4-(dimethylcarbamoyl)phenyl]-1-piperidyl]methyl]-1-methyl-pyrrolo[2,3-b]pyridin-4-yl]-2-oxo-4-pyridyl]carbamate], 152 nM; in that of `CN(C)C(=O)c1ccc(C2CCN(Cc3cc4c(-n5ccc(NCC6CC6)cc5=O)ccnc4n3C)CC2)cc1` [Example 1d7, 4-[1-[[4-[4-(cyclo-Propylmethylamino)-2-oxo-1-pyridyl]-1-methyl-pyrrolo[2,3-b]pyridin-2-yl]methyl]-4-piperidyl]-N,N-dimethyl-benzamide], 99.8 nM.
Same read-out and setting: in the case of `CN(C)C(=O)c1ccc(C2CCN(Cc3cc4c(-n5ccc(NC(C)(C)C)cc5=O)ccnc4n3C)CC2)cc1` [Example 1d9, 4-[1-[[4-[4-(tert-Butylamino)-2-oxo-1-pyridyl]-1-methyl-pyrrolo[2,3-b]pyridin-2-yl]methyl]-4-piperidyl]-N,N-dimethyl-benzamide] it was 4970 nM.
As to `CCN(CC)C(=O)c1ccc(C2CCN(Cc3cc4c(-n5ccc(NC)cc5=O)ccnc4n3C)CC2)cc1` [Example 1d10, N,N-Diethyl-4-[1-[[1-methyl-4-[4-(methylamino)-2-oxo-1-pyridyl]pyrrolo[2,3-b]pyridin-2-yl]methyl]-4-piperidyl]benzamide], binding was characterised by a dissociation constant (Kd) of 22.8 nM.
In the case of `CCCN(CCC)C(=O)c1ccc(C2CCN(Cc3cc4c(-n5ccc(NC)cc5=O)ccnc4n3C)CC2)cc1` [Example 1d11, N,N-Dipropyl-4-[1-[[1-methyl-4-[4-(methylamino)-2-oxo-1-pyridyl]pyrrolo[2,3-b]pyridin-2-yl]methyl]-4-piperidyl]benzamide], the Kd stood at 38.4 nM.
Compound `CN(C)C(=O)c1ccc(C2CCN(Cc3cc4c(-n5ccc(NCc6ccccc6)cc5=O)ccnc4n3C)CC2)cc1` [Example 1d12, 4-[1-[[4-[4-(Benzylamino)-2-oxo-1-pyridyl]-1-methyl-pyrrolo[2,3-b]pyridin-2-yl]methyl]-4-piperidyl]-N,N-dimethyl-benzamide] returned a dissociation constant Kd of 31 nM.
Same read-out and setting: in the case of `CN(C)C(=O)c1ccc(C2CCN(Cc3cc4c(-n5ccc(NCc6ccc(Cl)cc6)cc5=O)ccnc4n3C)CC2)cc1` [Example 1d13, 4-[1-[[4-[4-[(4-Chlorophenyl)methylamino]-2-oxo-1-pyridyl]-1-methyl-pyrrolo[2,3-b]pyridin-2-yl]methyl]-4-piperidyl]-N,N-dimethyl-benzamide] it was 49 nM; in that of `CN(C)C(=O)c1ccc(C2CCN(Cc3cc4c(-n5ccc(NCc6ccc(F)c(F)c6)cc5=O)ccnc4n3C)CC2)cc1` [Example 1d14, 4-[1-[[4-[4-[(3,4-Difluorophenyl)methylamino]-2-oxo-1-pyridyl]-1-methyl-pyrrolo[2,3-b]pyridin-2-yl]methyl]-4-piperidyl]-N,N-dimethyl-benzamide], 124 nM.
Compound `CN(C)C(=O)c1ccc(C2CCN(Cc3cc4c(-n5ccc(NC6CC6)cc5=O)ccnc4n3C)CC2)cc1` [Example 1d15, 4-[1-[[4-[4-(cyclo-Propylamino)-2-oxo-1-pyridyl]-1-methyl-pyrrolo[2,3-b]pyridin-2-yl]methyl]-4-piperidyl]-N,N-dimethyl-benzamide] displayed a Kd of 112 nM.
Same read-out and setting: the value for `CN(C)C(=O)c1ccc(C2CCN(Cc3cc4c(-n5c(F)c(Cl)c(N)c(Cl)c5=O)ccnc4n3C)CC2)cc1` [Example 1d17, 4-[1-[[4-(4-Amino-3,5-dichloro-2-fluoro-6-oxo-1-pyridyl)-1-methyl-pyrrolo[2,3-b]pyridin-2-yl]methyl]-4-piperidyl]-N,N-methyl-benzamide] was 6620 nM; that for `[2H]C([2H])([2H])N(C(=O)c1ccc(C2CCN(Cc3cc4c(-n5ccc(NC)cc5=O)ccnc4n3C)CC2)c(C)c1)C([2H])([2H])[2H]` [Example 1d26, 3-Methyl-4-[1-[[1-methyl-4-[4-(methylamino)-2-oxo-1-pyridyl]pyrrolo[2,3-b]pyridin-2-yl]methyl]-4-piperidyl]-N,N-bis(trideuteriomethyl)benzamide] was 69.7 nM; that for `CN(C)C(=O)c1ccc(C2CCN(Cc3cc4c(-n5ccc(N)c(C6CC6)c5=O)ccnc4n3C)CC2)cc1` [Example 1d28, 4-[1-[[4-(4-Amino-3-cyclo-propyl-2-oxo-1-pyridyl)-1-methyl-pyrrolo[2,3-b]pyridin-2-yl]methyl]-4-piperidyl]-N,N-dimethyl-benzamide] was 76.4 nM.
